Results on ten compounds are retold here after patent publication US6087390A, “Derivatives of antifungal substance BE-31405 and process for producing the same” (Banyu Pharmaceutical Co., Ltd., priority 1997, dated 2000).

By MIC is commonly meant the lowest concentration found to suppress growth.

Converted amounts (≈) assume the structure as drawn.

The first test has as its system a certain kind of fungus.
Assay: not given
Conditions: in vitro, acidic conditions.
For `CC(=O)O[C@@H]1[C@@H]2O[C@@]3(OC[C@@]45C[C@@H]6[C@H](C)CC[C@H]6[C@@]6(C=O)C[C@@H]4C=C(C(C)C)[C@@]56C(=O)O)O[C@@H]2O[C@@H]1[C@@H]3O` [BE-31405], the “growth inhibitory (antifungal) activity under acidic conditions” value was “shows growth inhibitory activity against a certain kind of fungus in vitro especially under acidic conditions”.

Still in this test, the particulars now being: neutral conditions.
For the compound `CC(=O)O[C@@H]1[C@@H]2O[C@@]3(OC[C@@]45C[C@@H]6[C@H](C)CC[C@H]6[C@@]6(C=O)C[C@@H]4C=C(C(C)C)[C@@]56C(=O)O)O[C@@H]2O[C@@H]1[C@@H]3O` [BE-31405], the “antifungal activity under neutral conditions” value is recorded as “the activity remarkably lowers under neutral conditions”.

The test system of a further test is Candida albicans IFO1385. The test is described as follows: Antifungal activity: MIC against Candida albicans IFO1385 on yeast nitrogen base agar. It is filed as cell-based. To be noted: 48 h; 2 days of incubation at 37° C., yeast nitrogen base agar with 1% glucose and 0.25% dipotassium hydrogen phosphate; single use; read-out: MIC.
Experimental: ^b MICs were determined against Candida albicans IFO1385 after 2 days
of incubation of the test strain at 37° C. on yeastnitrogen base
agar (containing 1% glucose and 0.25% dipotassium hydrogen phosphate,
With `CCCCC(=O)OC1C2OC3(OCC45CC6C(C)CCC6C6(C=O)CC4C=C(C(C)C)C65C(=O)O)OC2OC1C3O` (stereo not drawn) [Compound 10, 8a-[[[6-(n-valeryloxy)tetrahydro-7-hydroxy-2,5-methanofuro[2,3-d]-1,3-dioxol-2-yl]oxy]methyl]-4-formyl-4,4a,5,6,7,7a,8,8a-octahydro-7-methyl-3-(1-methylethyl)-1,4-methano-s-indacene-3a(1H)-carboxylic acid], the MIC amounted to 6.25 µg/mL (≈ 10.9 µM). The same measure, in the same setting: for `CCCCCC(=O)OC1C2OC3(OCC45CC6C(C)CCC6C6(C=O)CC4C=C(C(C)C)C65C(=O)O)OC2OC1C3O` (stereo not drawn) [Compound 13, 8a-[[[6-(n-hexanoyloxy)tetrahydro-7-hydroxy-2,5-methanofuro[2,3-d]-1,3-dioxol-2-yl]oxy]methyl]-4-formyl-4,4a,5,6,7,7a,8,8a-octahydro-7-methyl-3-(1-methylethyl)-1,4-methano-s-indacene-3a(1H)-carboxylic acid] the value was 3.13 µg/mL (≈ 5.32 µM); for `CCCCCCC(=O)OC1C2OC3(OCC45CC6C(C)CCC6C6(C=O)CC4C=C(C(C)C)C65C(=O)O)OC2OC1C3O` (stereo not drawn) [Compound 14, 8a-[[[6-(n-heptanoyloxy)tetrahydro-7-hydroxy-2,5-methanofuro[2,3-d]-1,3-dioxol-2-yl]oxy]methyl]-4-formyl-4,4a,5,6,7,7a,8,8a-octahydro-7-methyl-3-(1-methylethyl)-1,4-methano-s-indacene-3a(1H)-carboxylic acid], 1.56 µg/mL (≈ 2.59 µM); for `CCCCOC1C2OC3(OCC45CC6C(C)CCC6C6(C=O)CC4C=C(C(C)C)C65C(=O)O)OC2OC1C3O` (stereo not drawn) [Compound 38, 8a-[[[6-(butoxy)tetrahydro-7-hydroxy-2,5-methanofuro[2,3-d]-1,3-dioxol-2-yl]oxy]methyl]-4-formyl-4,4a,5,6,7,7a,8,8a-octahydro-7-methyl-3-(1-methylethyl)-1,4-methano-s-indacene-3a(1H)-carboxylic acid], 3.13 µg/mL (≈ 5.73 µM). On the same count and under the same terms, the value for `CCCCCOC1C2OC3(OCC45CC6C(C)CCC6C6(C=O)CC4C=C(C(C)C)C65C(=O)O)OC2OC1C3O` (stereo not drawn) [Compound 41, 8a-[[[6-(pentyloxy)tetrahydro-7-hydroxy-2,5-methanofuro[2,3-d]-1,3-dioxol-2-yl]oxy]methyl]-4-formyl-4,4a,5,6,7,7a,8,8a-octahydro-7-methyl-3-(1-methylethyl)-1,4-methano-s-indacene-3a(1H)-carboxylic acid] was 1.56 µg/mL (≈ 2.78 µM); that for `CC(C)CCOC1C2OC3(OCC45CC6C(C)CCC6C6(C=O)CC4C=C(C(C)C)C65C(=O)O)OC2OC1C3O` (stereo not drawn) [Compound 44, 8a-[[[6-(isopentyloxy)tetrahydro-7-hydroxy-2,5-methanofuro[2,3-d]-1,3-dioxol-2-yl]oxy]methyl]-4-formyl-4,4a,5,6,7,7a,8,8a-octahydro-7-methyl-3-(1-methylethyl)-1,4-methano-s-indacene-3a(1H)-carboxylic acid] was 3.13 µg/mL (≈ 5.58 µM). `CCCCCCOC1C2OC3(OCC45CC6C(C)CCC6C6(C=O)CC4C=C(C(C)C)C65C(=O)O)OC2OC1C3O` (stereo not drawn) [Compound 47, 8a-[[[6-(hexyloxy)tetrahydro-7-hydroxy-2,5-methanofuro[2,3-d]-1,3-dioxol-2-yl]oxy]methyl]-4-formyl-4,4a,5,6,7,7a,8,8a-octahydro-7-methyl-3-(1-methylethyl)-1,4-methano-s-indacene-3a(1H)-carboxylic acid]: the minimum inhibitory concentration (MIC) came out at 1.56 µg/mL (≈ 2.71 µM).

Consider `CCCCCCCCCCOC1C2OC3(OCC45CC6C(C)CCC6C6(C=O)CC4C=C(C(C)C)C65C(=O)O)OC2OC1C3O` (stereo not drawn) [Compound 50, 8a-[[[6-(decyloxy)tetrahydro-7-hydroxy-2,5-methanofuro[2,3-d]-1,3-dioxol-2-yl]oxy]methyl]-4-formyl-4,4a,5,6,7,7a,8,8a-octahydro-7-methyl-3-(1-methylethyl)-1,4-methano-s-indacene-3a(1H)-carboxylic acid], for which the MIC was determined as 3.13 µg/mL (≈ 4.96 µM).

Staying with this test, now noted: 2 days of incubation at 37° C., yeast nitrogen base agar with 1% glucose and 0.25% dipotassium hydrogen phosphate; single use.
`CC(=O)O[C@@H]1[C@@H]2O[C@@]3(OC[C@@]45C[C@@H]6[C@H](C)CC[C@H]6[C@@]6(C=O)C[C@@H]4C=C(C(C)C)[C@@]56C(=O)O)O[C@@H]2O[C@@H]1[C@@H]3O` [BE-31405]: the MIC worked out at 50 µg/mL (≈ 93.9 µM). Turning to `COC1C2OC3(OCC45CC6C(C)CCC6C6(C=O)CC4C=C(C(C)C)C65C(=O)O)OC2OC1C3O` (stereo not drawn) [SCH57404 (xylarin), reference compound], the MIC turned out to be 100 µg/mL (≈ 198 µM).
